# Experimental data reported in US9115093B2, “Substituted bicyclic dihydropyrimidinones and their use as inhibitors of neutrophil elastase activity” (Boehringer Ingelheim International GmbH, priority 2013, dated 2015).
# Experiments:
# [1] = Metabolic stability with human hepatocytes; type: in vitro ADME; settings: human hepatocyte suspension, 1 μM, scaled with well stirred model
# Procedure: Assay for the Determination of Metabolic Stability with Human Hepatocytes
# The metabolic degradation of the test compound is assayed in a human hepatocyte suspension. Human hepatocytes (typically cryopreserved) are incubated in an appropriate buffer system (e.g. Dulbecco's modified eagle medium plus 3.5 μg glucagon/500 mL, 2.5 mg insulin/500 mL and 3.75 mg/500 mL hydrocortison) containing 5% species serum. Following a (typically) […] preincubation in an incubator (37° C., 10% CO2), 5 μl of test compound solution (80 μM; from 2 mM stock solution in DMSO diluted 1:25 with medium) are added into 395 μl hepatocyte suspension (cell density in the range 0.25-5*10^6 cells/mL, typically 1*10^6 cells/mL; final concentration of test compound 1 μM, final DMSO concentration […]). The cells are incubated for six hours (incubator, orbital shaker) and samples (25 μl) are taken at 0, 0.5, 1, 2, 4 and 6 hours. Samples are transferred into acetonitrile and pelleted by centrifugation (5 min). The supernatant is transferred to a new 96-deepwell plate, evaporated under nitrogen and resuspended. The decline of parent compound is analyzed by LC-MS/MS.
# The intrinsic clearance CL_[…] is calculated as follows: CL_[…]=Dose/AUC=(C0/CD)/(AUD+clast/k)*1′000/60 (C0: initial concentration in the incubation [μM], CD: cell density of vital cells [10^6 cells/mL], AUD: area under the data [μM*h], clast: concentration of last data point [μM], k: slope of the regression line for parent decline [h^−1])
# The calculated in vitro hepatic intrinsic clearance can be scaled up to the intrinsic in vivo hepatic clearance and used to predict hepatic in vivo blood clearance (CL) by the use of a is liver model (well stirred model): CL_[…]_INVIVO [ml/min/kg]=(CL_[…] [μL/min/10^6 cells]* hepatocellularity[10^6 cells/g liver]*liver factor[g/kg bodyweight])/1′000 CL[ml/min/kg]=CL_[…]_INVIVO [ml/min/kg]*hepatic blood flow [ml/min/kg]/(CL_[…]_INVIVO [ml/min/kg]+hepatic blood flow [ml/min/kg]) Qh[%]=CL[ml/min/kg]/hepatic blood flow[ml/min/kg]) (Hepatocellularity, human: 120*10^6 cells/g liver; lver factor, human: 25.7 g/kg bodyweight; blood flow, human: 21 ml/(min*kg))
# The predicted human hepatic in vivo blood clearance (CL) of selected compounds in the metabolic stability assay described above are listed in Table 16.
# neutrophil elastase [2] = target: T1, neutrophil elastase (Homo sapiens, UniProt P08246); assay: Human Neutrophil Elastase Assay; type: biochemical; parameters: purchased Calbiochem 324681; settings: substrate MeOSuc-Ala-Ala-Pro-Val-AMC, pH 7.5, room temperature
# T1 sequence (P08246 30-247 limits assumed): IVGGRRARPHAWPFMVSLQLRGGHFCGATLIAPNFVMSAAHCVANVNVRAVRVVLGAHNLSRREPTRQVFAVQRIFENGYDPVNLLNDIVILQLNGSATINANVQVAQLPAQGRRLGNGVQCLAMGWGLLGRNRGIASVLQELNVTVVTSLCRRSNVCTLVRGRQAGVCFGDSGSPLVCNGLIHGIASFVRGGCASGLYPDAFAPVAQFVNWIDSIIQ
# Summary of the method: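 Readout: AMC fluorescence (ex 380, em 460 nm) after 60 min room-temperature reaction with 250 nM MeOSuc-AAPV-AMC, following 15 min compound–enzyme preincubation. Buffer: Tris/NaCl pH 7.5, 0.01% BSA.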
# neutrophil elastase [3] = target: T1, neutrophil elastase; assay: Neutrophil elastase inhibitory activity in human plasma; type: biochemical; parameters: The stimulated blood is centrifuged to generate the neutrophil elastase enriched plasma; from tissue; host or cells: plasma from zymosan-stimulated citrated whole blood of healthy human donors; settings: neutrophil elastase enriched human plasma (zymosan-stimulated blood), substrate MeOSuc-Ala-Ala-Pro-Val-AMC
# Procedure: Assay for the Determination of Neutrophil Elastase Inhibitory Activity in Human Plasma
# Citrated blood from human healthy donors is mixed with zymosan suspension and incubated at room temperature. This leads to the stimulation of neutrophils and the release of neutrophil elastase into the plasma. The stimulated blood is centrifuged to generate the neutrophil elastase enriched plasma.
# Preparation of Zymosan Working Solution:
# • single 45 ml blood sample is taken into a 50 ml tube containing citrate (3.13%, 5 mL) and the tube is gently inverted 4 times. • Immediately after blood sampling, zymosan working solution (5 mL) is added. • After the addition of zymosan working solution, the tubes are capped, mixed gently and incubated at 22° C. for 15 min on a shaker at 20 rpm. • Make 10 ml aliquots after the incubation time. • Centrifuge the 15 ml tubes at 800 g for […] at 4° C. in a Jouan centrifuge. • Harvest the plasma and make 1-5 ml aliquots. • Store the plasma at −80° C.
# Various concentrations of the neutrophil elastase inhibitor are incubated with plasma. Subsequently, the enzyme activity is measured using the fluorogenic substrate MeOSuc-Ala-Ala-Pro-Val-AMC (Bachem Cat. No. 1-1270, substrate concentration: 250 μM, pH 7.5, 25 mM TRIS buffer, 250 mM NaCl) in analogous fashion as described for the human neutrophil assay. A dose response curve is generated to calculate the EC50 of the inhibitor. The analysis of the data is performed by the calculation of the percentage of fluorescence in the presence of the test compound compared to the fluorescence of the vehicle control after subtracting the background fluorescence: An inhibitor of the neutrophil elastase enzyme will give values between 100% control (no inhibition) and 0% control (complete inhibition). The human plasma shift of selected compounds can be calculated using the following equation: Human plasma shift=(EC50 in human plasma assay)/(IC50 in human neutrophil elastase assay) The EC50 values of selected compounds in the human plasma assay described above are listed in Table 14.
# [4] = Metabolic stability with human liver microsomes; type: in vitro ADME; settings: pooled human liver microsomes, 37° C., 1 mg/ml protein, NADPH
# Procedure: Assay for the Determination of Metabolic Stability with Human Liver Microsomes
# The metabolic degradation of the test compound is assayed at 37° C. with pooled human liver microsomes. The final incubation volume of […] per time point contains TRIS buffer pH 7.6 (0.1 M), magnesium chloride (5 mM), microsomal protein (1 mg/ml) and the test compound at a final concentration of […]. Following a short preincubation period at 37° C., the reactions are initiated by addition of beta-nicotinamide adenine dinucleotide phosphate, reduced form (NADPH, 1 mM) and terminated by transfering an aliquot into acetonitrile after different time points. Additionally, the NADPH-independent degradation is monitored in incubations without NADPH, terminated at the last time point. The rol remaining test compound after NADPH independent incubation is reflected by the parameter c(control) (metabolic stability). The quenched incubations are pelleted by centrifugation (10′000 g, 5 min) An aliquot of the supernatant is assayed by LC-MS/MS for the amount of parent compound.
# The half-life (t1/2 INVITRO) is determined by the slope of the semilogarithmic plot of the concentration-time profile. The intrinsic clearance (CL_[…]) is calculated by considering the amount of protein in the incubation: CL_[…][μl/min/mg protein]=(ln 2/(half-life [min]*protein content [mg/ml]))*1′000.
# The half-life (t1/2 INVITRO) values of selected compounds in the metabolic stability assay described above are listed in Table 15.
SMILES,CL (predicted human hepatic in vivo blood clearance) [1] [mL/min/kg],IC50 (neutrophil elastase [2]) [nM],EC50 (neutrophil elastase [3]) [nM],t1/2 INVITRO [4] [h]
"CS(=O)(=O)c1cc(C#N)ccc1[C@H]1NC(=O)N(c2cccc(C(F)(F)F)c2)C2=C1C(=O)CCC2 (single isomer, unassigned) [Example 18A]",0,,,
"CS(=O)(=O)c1cc(C#N)ccc1[C@H]1NC(=O)N(c2cccc(C(F)F)c2)C2=C1C(=O)CCC2 (single isomer, unassigned) [Example 19A]",0,,,
"CNC(=O)N1C(=O)N(c2cccc(C(F)(F)F)c2)C2=C(C(=O)CCC2)[C@H]1c1ccc(C#N)cc1S(C)(=O)=O (single isomer, unassigned) [Example 47A]",0,,,
"CCS(=O)(=O)c1cc(C#N)ccc1[C@H]1NC(=O)N(c2cccc(C(F)(F)F)c2)C2=C1C(=O)CCC2 (single isomer, unassigned) [Example 54A]",2,,,
"CN1C(=O)N(c2cccc(C(F)(F)F)c2)C2=C(C(=O)CCC2)[C@H]1c1ccc(C#N)cc1S(C)(=O)=O [Example 48, (S)-4-(3-Methyl-2,5-dioxo-1-(3-(trifluoromethyl)phenyl)-1,2,3,4,5,6,7,8-octahydroquinazolin-4-yl)-3-(methylsulfonyl)benzonitrile]",3,1,1,
CS(=O)(=O)c1cc(C#N)ccc1C1C2=C(CCCC2=O)N(c2cccc(C(F)(F)F)c2)C(=O)N1CCCO (stereo not shown) [Example 58.2],3,,,>2.17
"CN1C(=O)N(c2ccnc(C(F)(F)F)c2)C2=C(C(=O)CCC2)C1c1ccc(C#N)cc1S(C)(=O)=O (stereo not shown) [Example 64, 4-(3-Methyl-2,5-dioxo-1-(2-(trifluoromethyl)pyridin-4-yl)-1,2,3,4,5,6,7,8-octahydroquinazolin-4-yl)-3-(methylsulfonyl)benzonitrile]",0,3.6,1,
"CS(=O)(=O)c1cc(C#N)ccc1[C@@H]1C2=C(CCCC2=O)N(c2cccc(C(F)(F)F)c2)C(=O)N1S(C)(=O)=O [Example 68, (S)-3-(Methylsulfonyl)-4-(3-(methylsulfonyl)-2,5-dioxo-1-(3-(trifluoromethyl)phenyl)-1,2,3,4,5,6,7,8-octahydroquinazolin-4-yl)benzonitrile]",0,< 1,1,
CC(C)(O)CNC(=O)N1C(=O)N(c2cccc(C(F)(F)F)c2)C2=C(C(=O)CCC2)C1c1ccc(C#N)cc1 (stereo not shown) [Example 70.9],0,,,>2.17
"CS(=O)(=O)c1cc(C#N)ccc1[C@@H]1C2=C(CCCC2=O)N(c2cccc(C(F)(F)F)c2)C(=O)N1C(N)=O [Example 75, (S)-4-(4-Cyano-2-(methylsulfonyl)phenyl)-2,5-dioxo-1-(3-(trifluoromethyl)phenyl)-1,2,5,6,7,8-hexahydroquinazoline-3(4H)-carboxamide]",,< 1,< 1,
CS(=O)(=O)c1cc(C#N)ccc1[C@@H]1C2=C(CCCC2=O)N(c2cccc(C(F)(F)F)c2)C(=O)N1C(=O)NC1CCOCC1 [Example 75.16],0,,,>2.17
CC(C)(O)CNC(=O)N1C(=O)N(c2ccnc(C(F)(F)F)c2)C2=C(C(=O)CCC2)C1c1ccc(C#N)cc1 (stereo not shown) [Example 76.4],,5.5,,
